Where a name gives a salt, the structure may show the parent alone. Calls of active or inactive are those of the source.
What was measured:
[1] = target: Estrogen receptor beta (Homo sapiens, UniProt Q92731); assay: ERβ–SRC-3 coactivator interaction inhibitors, confirmation, orthogonal assay, biochemical, ELISA, streptavidin-HRP readout (AID 1060)
[2] = target: Calpain-2 catalytic subunit (Sus scrofa, UniProt P43367); assay: pig calpain II inhibitor potency, dose response, biochemical, fluorogenic peptide substrate (AID 1420); assay type: functional
[3] = cytotoxicity in HEK-293T cells, dose response, cytotoxicity control for TCR NF-kB inhibitor project, luminescence, T-cell screen hits (AID 489026); assay type: functional, cell-based;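 also: cells exposed to compound about 14 hours before the viability readout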
[4] = cytotoxicity in HPDE-C7 cells, cell-based, fluorescence, HTS (AID 430); assay type: functional; settings: Homo sapiens
[5] = target: Beta-galactosidase (Escherichia coli, UniProt Q8VNN2); assay: PubChem AID 485352; assay type: functional
[6] = cytotoxicity in KRAS-transformed pancreatic duct cells, primary screen, cell-based, fluorescence, HTS (AID 431); assay type: functional; settings: Homo sapiens;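 also: cell line used: HPDE-C7K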
[7] = target: T1, Type-1 angiotensin II receptor (Homo sapiens, UniProt P30556); assay: AT1 receptor antagonists, dose response, selectivity assay for APJ receptor antagonist project, cell-based, uHTS hits (AID 463214); assay type: functional;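 also: antagonist potency against angiotensin II stimulated AT1 response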
T1 sequence (P30556 whole entry): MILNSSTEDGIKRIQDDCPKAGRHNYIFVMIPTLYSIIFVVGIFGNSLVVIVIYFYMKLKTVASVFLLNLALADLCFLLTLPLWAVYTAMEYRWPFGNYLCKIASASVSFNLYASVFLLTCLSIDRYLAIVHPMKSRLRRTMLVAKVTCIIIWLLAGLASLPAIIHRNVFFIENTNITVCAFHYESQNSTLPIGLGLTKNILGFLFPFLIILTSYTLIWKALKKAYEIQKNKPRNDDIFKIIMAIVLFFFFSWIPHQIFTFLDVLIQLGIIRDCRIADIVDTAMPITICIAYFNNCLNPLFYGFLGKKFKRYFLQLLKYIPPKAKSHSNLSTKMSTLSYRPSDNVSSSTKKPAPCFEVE

[8] = M. tuberculosis growth inhibition, HTS (AID 449762); assay type: functional
[9] = target: T2, Rac GTPase-activating protein 1 (Homo sapiens, UniProt Q9H0H5); assay: MgcRacGAP GTPase-activating activity inhibitors, confirmation, biochemical, ADP Hunter fluorescence, primary and confirmatory (AID 624330); assay type: functional
T2 sequence (Q9H0H5 whole entry): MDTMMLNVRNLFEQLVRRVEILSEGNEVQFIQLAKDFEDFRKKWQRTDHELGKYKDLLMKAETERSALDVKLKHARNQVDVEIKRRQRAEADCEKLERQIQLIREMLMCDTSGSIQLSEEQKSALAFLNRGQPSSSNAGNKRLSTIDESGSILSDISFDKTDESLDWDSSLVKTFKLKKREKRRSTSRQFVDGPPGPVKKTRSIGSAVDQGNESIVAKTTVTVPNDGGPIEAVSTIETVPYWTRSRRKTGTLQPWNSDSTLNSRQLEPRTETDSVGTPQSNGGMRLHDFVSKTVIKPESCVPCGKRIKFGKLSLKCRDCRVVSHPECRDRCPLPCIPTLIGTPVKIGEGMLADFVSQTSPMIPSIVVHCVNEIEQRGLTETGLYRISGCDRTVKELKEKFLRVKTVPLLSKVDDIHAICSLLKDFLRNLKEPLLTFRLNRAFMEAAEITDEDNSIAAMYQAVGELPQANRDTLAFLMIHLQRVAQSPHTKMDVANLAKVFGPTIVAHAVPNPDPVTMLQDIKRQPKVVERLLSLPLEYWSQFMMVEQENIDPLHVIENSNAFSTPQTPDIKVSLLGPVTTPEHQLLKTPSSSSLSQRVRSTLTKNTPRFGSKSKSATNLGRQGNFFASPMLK

[10] = Luminescent dose response cell-based high throughput screening assay for inhibitors of the Janus kinase 2 mutant JAK2V617F. [Related pubchem assays: 1446 (Primary screen.), 1521 (Confirmation assay.), 1486 (Counter screen.)]; assay type: functional
[11] = inhibitors of Vif binding to APOBEC3G peptide, primary screen, biochemical, TR-FRET, GST-Vif 1-94, biotin-A3G peptide, dose response retest (AID 1117319); assay type: functional;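 also: TR-FRET signal of purified GST-Vif binding a biotinylated A3G peptide; inhibitors lower the FRET signal by blocking Vif and A3G binding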
[12] = NIH-3T3 fibroblast cytotoxicity, dose response, cytotoxicity control, cell-based, fluorescence, Alamar Blue, secondary assay (AID 2327); assay type: functional;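 also: NIH-3T3 mouse fibroblasts cultured with fluconazole at 8 µg/mL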
[13] = Luminescence Cell-Based Dose Response HTS to Identify Inhibitors of 5'UTR Stem-Loop Driven Prion Protein mRNA Translation in H4 Neuroglioblastoma Cells. [Related pubchem assays: 1827 (Project Summary), 1813 (Primary HTS)]; assay type: functional
[14] = C. albicans growth with fluconazole, confirmation, fluorescence, retest (AID 2467); assay type: functional, cell-based
[15] = inhibitors of intracellular T. cruzi replication, confirmation, NIH3T3 host cells, beta-gal luminescence (AID 2044); assay type: functional, cell-based;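 also: intracellular parasites grown in NIH/3T3 mouse fibroblasts as host cells; luminescent beta-galactosidase reporter signal from transgenic T. cruzi replicating inside host cells; inhibitors lower the luminescence signal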
[16] = cytotoxicity toward NIH3T3 fibroblasts, dose response, counter-screen, cell-based, ATP luminescence, mouse fibroblasts (AID 2010); assay type: functional;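 also: cells exposed to compound for about 90 hours before reading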
[17] = cells
[18] = inhibitors of SNCA 5'UTR-driven reporter translation, confirmation, H4 neuroglioma cells, luminescence (AID 1988); assay type: functional, cell-based
[19] = inhibitors of firefly luciferase expression or activity, dose response, H4 neuroglioma cells, luminescence (AID 1990); assay type: functional, cell-based
[20] = target: T3, Caspase-6 (Homo sapiens, UniProt P55212); assay: human caspase-6 inhibitors, dose response, biochemical, VEID-R110 fluorescence, cherry-pick (AID 720632)
T3 sequence (P55212 whole entry): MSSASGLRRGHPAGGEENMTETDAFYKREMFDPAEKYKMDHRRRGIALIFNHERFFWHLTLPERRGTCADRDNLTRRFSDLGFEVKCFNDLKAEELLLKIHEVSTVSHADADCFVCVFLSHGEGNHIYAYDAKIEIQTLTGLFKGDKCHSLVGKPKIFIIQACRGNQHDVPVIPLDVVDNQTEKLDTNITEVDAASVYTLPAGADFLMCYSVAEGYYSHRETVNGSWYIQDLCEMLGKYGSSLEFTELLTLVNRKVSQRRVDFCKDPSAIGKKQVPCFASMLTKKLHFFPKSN

[21] = Jurkat T cell cytotoxicity, dose response, cytotoxicity control for P. falciparum gametocyte viability project, luminescence (AID 1117277); assay type: functional, cell-based;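 also: potency reflects loss of cellular ATP meaning fewer viable cells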
[22] = P. falciparum late gametocyte killing, dose response, luminescence (AID 1117278); assay type: functional, cell-based;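 also: gametocytes exposed to compound for 24 hours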
[23] = cells; settings: A549
[24] = HEp-2 cell cytotoxicity, dose response, cytotoxicity control for RSV inhibitor project, HTS (AID 2410); assay type: functional; settings: human respiratory syncytial virus
[25] = cells; settings: HEK293
[26] = HepG2 cell cytotoxicity, dose response, cytotoxicity control, ATP luminescence, cherry-pick, set 6 (AID 1053125); assay type: functional, cell-based
[27] = target: T4, Heat shock factor protein 1 (Mus musculus, UniProt P38532); assay: HSF1 potentiators in luciferase reporter cells, confirmation, cell-based, NIH3T3, luminescence, dose retest (AID 435004); assay type: functional;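 also: stress induced by proteasome inhibitor MG132 added 30 min after compound; luciferase reporter driven by HSF1 response element in NIH3T3 cells; actives raise luminescence as potentiators of the MG132 stress response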
T4 sequence (P38532 whole entry): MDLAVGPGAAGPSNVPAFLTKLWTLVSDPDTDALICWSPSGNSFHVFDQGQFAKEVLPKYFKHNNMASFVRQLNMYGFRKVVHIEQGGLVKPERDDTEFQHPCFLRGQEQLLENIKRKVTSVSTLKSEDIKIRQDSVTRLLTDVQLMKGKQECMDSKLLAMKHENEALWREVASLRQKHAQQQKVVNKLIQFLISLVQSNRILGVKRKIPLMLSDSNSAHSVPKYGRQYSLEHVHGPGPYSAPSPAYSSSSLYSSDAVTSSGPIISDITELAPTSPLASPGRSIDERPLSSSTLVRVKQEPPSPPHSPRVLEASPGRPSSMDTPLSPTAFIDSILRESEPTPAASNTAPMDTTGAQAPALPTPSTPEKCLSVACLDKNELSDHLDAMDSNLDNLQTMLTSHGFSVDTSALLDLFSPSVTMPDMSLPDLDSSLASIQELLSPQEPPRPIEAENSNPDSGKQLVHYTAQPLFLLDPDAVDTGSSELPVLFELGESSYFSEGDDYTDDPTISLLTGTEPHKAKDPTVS

[28] = target: T5, Ubiquitin-conjugating enzyme E2 N (Homo sapiens, UniProt P61088); assay type: functional;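 also: Dose-response confirmation in a TR-FRET assay detecting UBC13-driven polyubiquitin chain formation, inhibition measured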
T5 sequence (P61088 whole entry): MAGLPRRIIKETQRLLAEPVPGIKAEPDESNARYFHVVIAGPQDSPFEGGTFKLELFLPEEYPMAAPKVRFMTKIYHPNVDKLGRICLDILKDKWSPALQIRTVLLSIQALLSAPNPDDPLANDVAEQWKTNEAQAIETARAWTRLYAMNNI

[29] = target: Cytochrome P450 3A4 (Homo sapiens, UniProt P08684);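 also: CYP3A4 tested as one member of a cytochrome P450 panel screen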
[30] = target: Ephrin type-A receptor 4 (Mus musculus, UniProt Q03137); assay: inhibitors of EphA4 binding to KYL peptide, primary screen, biochemical, colorimetric, mouse EphA4 (AID 689); assay type: functional
[31] = target: Cytochrome P450 2C19 (Homo sapiens, UniProt P33261); assay: Cytochrome panel assay with activity outcomes. Panel member name: p450-cyp2c19 Compounds with AC50 equal or less than 10 uM are considered active; assay type: functional; settings: read-out: AC50
[32] = target: Cytochrome P450 2C9 (Homo sapiens, UniProt P11712)
[33] = Luminescence Cell-Based Dose Response HTS to Identify Activators of Luciferase Translation or Activity in H4 […] Cells. [Related pubchem assays: 1829 (Project Summary), 1814 (Primary HTS)]; assay type: functional
[34] = target: Protein Tat (Human immunodeficiency virus type 1 group M subtype B (isolate HXB2)(HIV-1), UniProt P04608); assay type: functional;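 also: tat binding to TAR RNA read out by fluorescence polarization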
[35] = test system: H4; assay: Luminescence Cell-Based Dose Response HTS to Identify Activators of 5'UTR Stem-Loop Driven Prion Protein mRNA Translation in H4 Neuroglioblastoma Cells. [Related pubchem assays: 1829 (Project Summary), 1814 (Primary HTS)]; assay type: functional; settings: Homo sapiens
[36] = Luminescence Cell-Based Dose Confirmation HTS to Identify Activators of 5'UTR Stem-Loop Driven Alpha-Synuclein mRNA Translation in H4 Neuroglioblastoma Cells. [Related pubchem assays: 1829 (Project Summary), 1814 (Primary HTS)]; assay type: functional

Calpain-2 catalytic subunit, sequence (P43367 whole entry): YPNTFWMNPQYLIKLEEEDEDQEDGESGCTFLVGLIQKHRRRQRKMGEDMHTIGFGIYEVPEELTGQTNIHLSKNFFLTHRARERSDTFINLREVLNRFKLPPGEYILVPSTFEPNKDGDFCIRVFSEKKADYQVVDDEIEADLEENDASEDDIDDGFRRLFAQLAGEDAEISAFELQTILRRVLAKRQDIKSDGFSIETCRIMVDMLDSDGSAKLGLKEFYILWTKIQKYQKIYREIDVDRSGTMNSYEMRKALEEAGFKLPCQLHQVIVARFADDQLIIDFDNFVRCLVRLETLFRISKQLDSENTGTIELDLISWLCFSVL
Estrogen receptor beta, sequence (Q92731 whole entry): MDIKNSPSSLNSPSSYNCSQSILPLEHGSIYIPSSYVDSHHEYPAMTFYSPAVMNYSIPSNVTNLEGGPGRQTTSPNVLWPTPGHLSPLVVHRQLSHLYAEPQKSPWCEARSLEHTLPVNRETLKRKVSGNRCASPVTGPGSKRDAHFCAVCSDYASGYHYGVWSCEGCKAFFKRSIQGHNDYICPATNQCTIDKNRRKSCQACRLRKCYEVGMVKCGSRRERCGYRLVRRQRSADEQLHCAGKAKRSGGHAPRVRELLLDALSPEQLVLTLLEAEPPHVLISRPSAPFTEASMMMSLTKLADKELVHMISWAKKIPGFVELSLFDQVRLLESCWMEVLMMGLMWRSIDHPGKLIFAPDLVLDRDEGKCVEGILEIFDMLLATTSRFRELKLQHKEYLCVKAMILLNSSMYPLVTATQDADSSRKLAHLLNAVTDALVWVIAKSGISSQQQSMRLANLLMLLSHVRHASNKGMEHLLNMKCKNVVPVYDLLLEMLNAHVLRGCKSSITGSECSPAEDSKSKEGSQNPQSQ
Beta-galactosidase, sequence (Q8VNN2 whole entry): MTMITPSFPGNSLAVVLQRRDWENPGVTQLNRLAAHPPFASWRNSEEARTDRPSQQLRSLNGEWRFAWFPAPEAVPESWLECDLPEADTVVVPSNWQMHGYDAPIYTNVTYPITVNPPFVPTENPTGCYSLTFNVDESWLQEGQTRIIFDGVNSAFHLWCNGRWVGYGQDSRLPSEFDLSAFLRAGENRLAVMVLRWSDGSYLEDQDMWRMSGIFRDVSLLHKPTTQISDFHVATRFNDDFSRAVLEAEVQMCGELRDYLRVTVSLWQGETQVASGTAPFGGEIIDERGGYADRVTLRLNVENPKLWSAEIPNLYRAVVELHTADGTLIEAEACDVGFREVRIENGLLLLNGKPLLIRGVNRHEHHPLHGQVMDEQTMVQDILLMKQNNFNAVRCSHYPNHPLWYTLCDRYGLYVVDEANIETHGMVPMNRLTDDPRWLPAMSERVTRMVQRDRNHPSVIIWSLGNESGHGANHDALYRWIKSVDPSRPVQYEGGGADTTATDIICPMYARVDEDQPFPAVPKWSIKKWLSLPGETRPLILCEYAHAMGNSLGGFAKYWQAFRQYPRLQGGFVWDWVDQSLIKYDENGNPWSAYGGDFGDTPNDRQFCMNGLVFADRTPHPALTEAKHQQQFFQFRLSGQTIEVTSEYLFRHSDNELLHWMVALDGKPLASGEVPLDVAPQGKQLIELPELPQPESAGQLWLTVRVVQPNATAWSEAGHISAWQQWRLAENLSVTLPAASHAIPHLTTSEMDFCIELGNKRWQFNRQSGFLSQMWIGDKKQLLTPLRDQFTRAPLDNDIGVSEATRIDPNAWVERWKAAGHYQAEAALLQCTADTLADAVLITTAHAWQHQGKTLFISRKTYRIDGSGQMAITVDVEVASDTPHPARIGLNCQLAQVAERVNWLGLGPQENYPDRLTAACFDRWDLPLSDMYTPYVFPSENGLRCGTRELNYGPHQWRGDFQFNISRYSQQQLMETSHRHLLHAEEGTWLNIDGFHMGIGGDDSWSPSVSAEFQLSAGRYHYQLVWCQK
Cytochrome P450 2C19, sequence (P33261 whole entry): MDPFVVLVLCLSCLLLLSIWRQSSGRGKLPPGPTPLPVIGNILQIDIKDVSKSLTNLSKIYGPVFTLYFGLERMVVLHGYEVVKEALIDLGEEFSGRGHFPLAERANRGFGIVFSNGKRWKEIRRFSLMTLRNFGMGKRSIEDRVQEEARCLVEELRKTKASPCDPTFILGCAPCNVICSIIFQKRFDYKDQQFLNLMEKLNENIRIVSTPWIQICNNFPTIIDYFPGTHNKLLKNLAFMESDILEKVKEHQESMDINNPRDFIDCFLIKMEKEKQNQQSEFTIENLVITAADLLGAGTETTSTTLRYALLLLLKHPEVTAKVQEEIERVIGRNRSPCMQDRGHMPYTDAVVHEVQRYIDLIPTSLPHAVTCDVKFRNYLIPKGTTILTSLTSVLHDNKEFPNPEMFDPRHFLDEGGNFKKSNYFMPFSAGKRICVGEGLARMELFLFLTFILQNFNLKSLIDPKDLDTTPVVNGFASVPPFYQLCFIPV
Protein Tat, sequence (P04608 whole entry): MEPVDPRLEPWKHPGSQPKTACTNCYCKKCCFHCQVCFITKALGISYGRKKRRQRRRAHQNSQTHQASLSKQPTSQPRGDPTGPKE
Cytochrome P450 2C9, sequence (P11712 whole entry): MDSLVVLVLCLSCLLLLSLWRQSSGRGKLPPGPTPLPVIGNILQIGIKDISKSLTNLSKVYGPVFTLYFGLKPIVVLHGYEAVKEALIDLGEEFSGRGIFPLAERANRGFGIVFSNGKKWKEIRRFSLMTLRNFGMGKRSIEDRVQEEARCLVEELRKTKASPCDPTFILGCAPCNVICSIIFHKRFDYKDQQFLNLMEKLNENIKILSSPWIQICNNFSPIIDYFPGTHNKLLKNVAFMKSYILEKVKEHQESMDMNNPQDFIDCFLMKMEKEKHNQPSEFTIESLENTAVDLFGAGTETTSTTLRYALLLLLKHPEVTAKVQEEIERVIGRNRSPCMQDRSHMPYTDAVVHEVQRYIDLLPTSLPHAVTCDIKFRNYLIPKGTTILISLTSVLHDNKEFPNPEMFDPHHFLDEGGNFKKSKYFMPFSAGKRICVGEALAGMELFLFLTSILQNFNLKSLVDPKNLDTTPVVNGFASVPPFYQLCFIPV
Cytochrome P450 3A4, sequence (P08684 whole entry): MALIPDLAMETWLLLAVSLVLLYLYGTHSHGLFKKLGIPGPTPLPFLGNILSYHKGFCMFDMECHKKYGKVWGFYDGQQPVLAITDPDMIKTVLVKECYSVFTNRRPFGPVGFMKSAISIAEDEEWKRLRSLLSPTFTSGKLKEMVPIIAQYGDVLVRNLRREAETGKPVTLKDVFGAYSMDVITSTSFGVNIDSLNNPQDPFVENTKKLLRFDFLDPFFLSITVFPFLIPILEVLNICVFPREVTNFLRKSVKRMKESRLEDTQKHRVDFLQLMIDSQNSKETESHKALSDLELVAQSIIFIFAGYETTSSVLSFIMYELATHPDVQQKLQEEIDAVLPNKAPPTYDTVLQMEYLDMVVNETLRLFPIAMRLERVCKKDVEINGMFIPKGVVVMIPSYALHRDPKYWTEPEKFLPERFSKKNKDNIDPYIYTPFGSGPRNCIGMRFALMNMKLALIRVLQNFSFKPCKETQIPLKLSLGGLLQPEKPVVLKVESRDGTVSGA
Ephrin type-A receptor 4, sequence (Q03137 whole entry): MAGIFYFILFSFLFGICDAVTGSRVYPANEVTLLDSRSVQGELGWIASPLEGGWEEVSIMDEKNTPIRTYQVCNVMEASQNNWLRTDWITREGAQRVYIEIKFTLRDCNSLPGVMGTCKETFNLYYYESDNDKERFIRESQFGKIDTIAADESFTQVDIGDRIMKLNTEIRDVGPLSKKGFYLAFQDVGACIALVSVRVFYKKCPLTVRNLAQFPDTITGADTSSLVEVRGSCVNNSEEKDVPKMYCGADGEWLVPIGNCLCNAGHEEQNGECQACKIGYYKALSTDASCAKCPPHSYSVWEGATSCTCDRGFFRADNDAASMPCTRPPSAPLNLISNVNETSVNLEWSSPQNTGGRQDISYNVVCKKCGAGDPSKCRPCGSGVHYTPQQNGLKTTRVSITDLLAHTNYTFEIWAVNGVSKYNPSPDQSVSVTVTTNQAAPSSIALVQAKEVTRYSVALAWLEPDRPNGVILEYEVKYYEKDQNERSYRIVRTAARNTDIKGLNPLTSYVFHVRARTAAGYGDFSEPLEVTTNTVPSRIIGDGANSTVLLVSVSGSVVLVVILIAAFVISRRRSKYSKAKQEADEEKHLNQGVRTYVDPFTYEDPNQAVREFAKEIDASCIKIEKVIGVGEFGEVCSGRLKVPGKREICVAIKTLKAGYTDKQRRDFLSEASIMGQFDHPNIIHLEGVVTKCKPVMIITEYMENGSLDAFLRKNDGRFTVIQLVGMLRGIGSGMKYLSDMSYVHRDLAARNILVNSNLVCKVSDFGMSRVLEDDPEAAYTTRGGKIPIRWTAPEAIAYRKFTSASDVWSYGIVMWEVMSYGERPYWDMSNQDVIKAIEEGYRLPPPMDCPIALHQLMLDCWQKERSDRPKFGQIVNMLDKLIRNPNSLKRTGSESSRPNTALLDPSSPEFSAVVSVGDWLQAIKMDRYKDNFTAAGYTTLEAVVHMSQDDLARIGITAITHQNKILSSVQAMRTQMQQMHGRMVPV

CC1CCCCN1CC(=O)Nc1sc2c(c1C#N)CCCC2 (centres undefined)
IC50 [1]: 0.0301 µM (not active)

Cc1ccc2nc(NC(=O)CN(C)S(=O)(=O)c3cccc4nsnc34)sc2c1
IC50 [2]: > 50 µM (not active)

CCOC(=O)/C=C/S(=O)(=O)c1ccc(NC(C)=O)cc1
IC50 [3]: > 80 µM (inactive)
EC50 [4]: 8.93 µM (active)
EC50 [5]: > 40 µM (inactive)
EC50 [6]: 10.4 µM (active)
IC50 [7]: 9.22 µM (active)

Cn1ccnc1C(O)c1cc(C(C)(C)C)c(O)c(C(C)(C)C)c1 (centres undefined)
IC50 [8]: > 100 µM (active)

Oc1ccc(Cl)cc1/N=C/c1sc2ccccc2c1Cl
IC50 [9]: 20.4 µM (active)
IC50 [10]: 1.15 µM (active)

CC(=O)c1ccc(S(=O)(=O)Nc2cccc(-c3ccc(N4CCOCC4)nn3)c2)cc1
IC50 [11]: > 100 µM (active)

CCOc1ccc(-c2cc(C)[n+](CCN(CC)CC)c(-c3ccc(OCC)cc3)c2)cc1.[O-][Cl+3]([O-])([O-])[O-]
EC50 [12]: 98.5 µM (active)
EC50 [13]: 14.6 µM (active)
EC50 [14]: 0.258 µM (active)
EC50 [15]: < 0.1 µM (active)
EC50 [16]: > 60 µM (not active)
EC50 [17]: 0.089 µM (active)
EC50 [18]: 8.8 µM (active)
EC50 [19]: 10.2 µM (active)

CCC(CO)NC(=O)C1C=C2c3cccc4[nH]cc(c34)CC2N(C)C1 (centres undefined)
AC50 [20]: 27.3 µM (active)

COc1ccc(N2CN=C3SCC(=O)N3C2)cc1
IC50 [8]: > 100 µM (active)

CCN(CC)S(=O)(=O)c1ccc(Cl)c(NC(=O)COC(=O)c2cccn2C)c1
IC50 [21]: > 83.3 µM (inactive)
IC50 [22]: > 109 µM (inactive)

N#CC(C#N)=C1C=CC=CN1/C(=C\c1ccccc1)C(=O)c1cccs1
EC50 [12]: 14.3 µM (active)
AC50 [23]: > 52 µM (inactive)
EC50 [14]: > 38 µM (not active)
CC50 [24]: 21.6 µM (active)
AC50 [25]: 22.1 µM (active)
AC50 [26]: 49.7 µM (active)
EC50 [27]: 4.04 µM (active)

CNCCC(Oc1ccc(C(F)(F)F)cc1)c1ccccc1 (centres undefined) [FLUOXETINE HYDROCHLORIDE]
IC50 [28]: > 20 µM (inactive)
EC50 [4]: > 20 µM (not active)
EC50 [6]: > 20 µM (not active)

O=C(NCCCN1CCC(Cc2ccccc2)CC1)C1CCN(S(=O)(=O)N2CCC3(CC2)OCCO3)CC1
IC50 [21]: > 83.3 µM (inactive)
IC50 [22]: > 109 µM (inactive)

CN(C)CCCNc1ccc(-c2nn(C)c(=O)c3ccccc23)cc1[N+](=O)[O-]
EC50 [15]: < 0.1 µM (active)
EC50 [16]: > 60 µM (not active)
EC50 [17]: 0.135 µM (active)

CCOC(=O)C1=C(c2ccccc2)N=c2s/c(=C\c3cc(OC)c(OC)c(OC)c3)c(=O)n2C1c1cccs1 (centres undefined)
AC50 [29]: 7.08 µM (inconclusive)
EC50 [15]: 1.29 µM (active)
EC50 [16]: > 60 µM (not active)
IC50 [30]: 1.49 µM (active)
AC50 [31]: 0.631 µM (inconclusive)
AC50 [32]: 1.26 µM (inconclusive)

Cc1cccc(OCc2nnc(S)n2C2CCCCC2)c1
IC50 [2]: 15 µM (not active)

Cc1ccc2nc3c(cc2c1)CC1(C(=O)N(C)C(=O)N(C)C1=O)C1CCCCN31 (centres undefined)
EC50 [33]: 73.9 µM (active)
IC50 [34]: > 100 µM (active)
EC50 [35]: 12 µM (active)
EC50 [36]: 35.6 µM (active)

Source: ChEMBL document CHEMBL1201862, “PubChem BioAssay data set” (2004)
